Ends that are not written are not given here.
Legend:
HIV-1 JRCSF = assay: HIV-1 transfer from monocyte-derived Langerhans cells (MDLC) to CD4+ T-cells, p24 ELISA of co-culture supernatants; assay type: cell-based
Procedure: Peripheral blood mononuclear cells (PBMCs) from healthy donors were separated from whole blood by a standard Ficoll gradient. CD14+ monocytes and CD4+ TCs were obtained from PBMCs by negative magnetic selection (Stemcell Technologies, Grenoble, France) according to the manufacturer's instructions. MDLC were prepared and maintained as described (Masterson et al., Blood 100:701-703; Geissmann et al., J Exp Med 187:961-966.)

CCL3/MIP-1α = CCL3/MIP-1α levels in LC-TC co-culture supernatants, multiplex assay and flow cytometry; assay type: cell-based, human; conditions: highest concentration of BAY117082, n=4
HIV-1 = conditions: agent added during co-culture; dose-dependent
Procedure: Normal goat IgG, neutralizing CCL3/MIP-1α goat Ab (R&D systems, Minneapolis, Minn., USA), or the NFκB inhibitor BAY117082 (Santa Cruz Biotechnology, Santa Cruz, Calif., USA), were included during the co-culture period (MDLC-TC) described previously. HIV-1 replication was measured in the co-culture supernatants a week later by p24 ELISA (Innotest; Innogenetics, Gent, Belgium).

**Q.** “CGRP8-37: truncated CGRP receptor antagonist (VTHRLAGLLSRSGGVVKNNFVPTNVGSKAF; ends and bridges not checked; UniProt P06881 90-119, looked up, fragment)” was tested. Which “effect on the inhibitory effect of CGRP on HIV-1 transfer” value (HIV-1 JRCSF; 1000 nM CGRP8-37 added 10 min before CGRP) did it give?
**A.** completely abrogated

**Q.** Which “CGRP-induced CCL3/MIP-1α secretion in presence of inhibitor, mean±s.e.m fold” value (CCL3/MIP-1α) does the source give for `Cc1ccc(S(=O)(=O)/C=C/C#N)cc1` [BAY117082] here?
**A.** 1.0±0.1 fold

**Q.** And the “effect on CGRP-mediated HIV-1 transfer inhibition” value (HIV-1)?
**A.** abrogated

**Q.** With “Ala-Cys-Asn-Thr-Ala-Thr-Cys-Val-Thr-His-Arg-Leu-Ala-Gly-Leu-Leu-Ser-Arg-Ser-Gly-Gly-Met-Val-Lys-Ser-Asn-Phe-Val-Pro-Thr-Asn-Val-Gly-Ser-Lys-Ala-Phe-NH2 (ACNTATCVTHRLAGLLSRSGGMVKSNFVPTNVGSKAF-NH2; ends and bridges not checked) [beta CGRP]” as the compound, how does the “HIV-1 transfer from Langerhans cells to TCs (in words)” value (HIV-1 JRCSF; MDLCs pretreated with the peptide, pulsed with HIV-1 JRCSF (R5), co-cultured a week with CD4+ TCs) read?
**A.** inhibit HIV-1 transfer
